Measurements reported in PMC9414676, “Experimental Studies Indicate That ST-2223, the Antagonist of Histamine H3 and Dopamine D2/D3 Receptors, Restores Social Deficits and Neurotransmission Dysregulation in Mouse Model of Autism” (Pharmaceuticals, 2022).

Legend:
BTBR mice = experiment: Open field locomotor test (OFL), anxiety-like behavior and locomotion; type: in vivo
Procedure: (§1) All the mice were randomly divided into nine groups of 5–7 mice each. The mice were injected intraperitonially once daily for 21 days with different doses of ST2223 (2.5, 5, and 10 mg/kg, i.p.), ARP 1 mg/kg or vehicle (1% DMSO in 0.9% normal saline). Group I, B6 mice were injected with vehicle served as control. Group II, BTBR mice were treated with vehicle. Groups III–V, BTBR mice received i.p. injections of different doses of ST2223 (2.5, 5, and 10 mg/kg, i.p.), respectively. Group VI, BTBR mice were injected with ARP (1 mg/kg, i.p.). For abrogation studies, Group VII, BTBR mice were treated with ST2223 (5 mg/kg, i.p.) along with RAM (10 mg/kg, i.p.). Group VIII, B6 mice were co-injected with vehicle and RAM (10 mg/kg, i.p). All treatments and vehicle (VEH) were administered 30–45 min before each behavioral test. The doses of these drugs were selected based on previous reports. Behavioral testing was performed between 9:00 am and 3:00 pm in an order randomized by group and in the following sequence: social approach test (SAT) and open field locomotor test (OFL). The chronic treatment started one week before the behavioral test and was continued for a total of 21 days as described above (Figure 7). Following behavioral tests, i.e., on day 21 of systemic treatment, five of the animals were sacrificed. The animals were deeply anesthetized with pentobarbital (40 mg/kg, i.p., body weight). To wash out the blood, cardiac perfusion was carried out using 0.01 M phosphate-buffered saline (PBS) at pH 7.4. The brains were quickly removed and placed on an ice plate, where the cerebellum, hippocampus, prefrontal cortex, and striatum were excised from the brain and snap-frozen in liquid nitrogen for later LC-MS/MS analysis.
Open field locomotor test (OFL) systematically assesses exploratory activity based on subjecting an animal to an unfamiliar environment whose escape is prevented by surrounding walls. It is a model of anxiety-like behavior, suitable for assessing motor activity as a reaction to an unknown environment, i.e., locomotion motivated by exploration. Both general locomotor activity and anxiety-related behaviors were assessed as the mice were placed individually inside an open field arena (45 × 45 × 30 cm) and were allowed to move freely for 10 min [80]. Mice were introduced into the center area of the arena (23 × 23 cm) and given 5 min habituation before actual behaviors recording. The overall distance moved inside the complete arena and time spent in the center and periphery was recorded for 10 min using CCD camera-assisted motion tracking equipment and software program (EthoVision 3.1, Noldus Information Technology, The Netherlands). Measurements obtained included total distance traveled and center and periphery time spent for […]. After each testing sessions, chambers we cleaned with 70% ethanol, and enough time was allowed for ethanol evaporation and odor dissipation. When evaluating the results, more time spent in the center indicated low levels of anxiety-like behaviors and total distance travelled represented locomotor activity.

[1] = tested on: acetylcholine levels in BTBR mice brain; experiment: Acetylcholine levels by LC-MS/MS in brain regions; type: in vivo; design: key to Acetylcholine level: ↔: No significant alterations; ↑: significant increase; ↑↑: additional significant increase vs. ST-2223-treated mice; ↓: significant decrease; conditions: for Acetylcholine level: ST-2223 5 mg/kg i.p. chronic, vs VEH-treated BTBR mice
Procedure: as §1
Perfusion was done on anesthetized animals using 1X PBS as described previously. Different regions of the brain were snap frozen. Frozen tissues were then weighed and homogenized in a 10-fold volume of acetonitrile. For 50mg of tissue, 500 µL of acetonitrile and Internal standard mix were added and homogenized. Homogenates were centrifuged at 15,000 rcf for 15 min at 4 °C. Tissue levels of dopamine, acetylcholine, histamine, and their metabolites were assessed using LC-MS/MS. LC-MS/MS analysis was conducted utilizing Waters BEH C18 COLUMN (2.1 × 100 mm, 1.7 µm) using Waters Acquity UPLC Binary Solvent Manager and FTN Sample Manager. The system was run in gradient mode with mobile phase A consisting of LC-MS GRADE WATER + 0.1% FORMIC ACID and mobile phase B consisting of 100% ACETONITRILE. Mobile phase was duly filtered through 0.2 µm filter and degassed ultrasonically for 15 min prior to use. Separations were performed at room temperature with 0.3 mL/min flow rate gradient starting with 90% of A for up to 0.5 min. Then, % of A was decreased gradually until it reached 20% at 2.5 min after which at 3 min %A was brought back to the initial condition and left for equilibration for 2 more minutes before the next injection (total 5 min run time). The injection volume was kept at 1 µL. Mass spectrometric detection was performed in multiple reaction monitoring (MRM) mode with positive electrospray ionization (ESI+) on Xevo TQS mass spectrometer (Waters, Milford, MA) equipped with an electrospray ionization (ESI) source and triple quadrupole mass analyzer. MRM transitions and instrument parameters were set by tuning the instrument by infusing each analyte. MRM transitions taken for quantification were 146.2 > 87.1 for Acetylcholine, 112.2 > 95.2 for Histamine, 154.1 > 137.2 for Dopamine, 150.2 > 91.3 for Acetylcholine D4, and […] > 99.3 for Histamine D4. Capillary Voltage, Source Offset, Source Temperature, De solvation Temperature, Cone Gas Flow, De solvation Gas Flow, Collision Gas Flow, Nebulizer Gas Flow were set as 3.0 (kV), 60.0 (V), 150 (°C), 550 (°C), 150 (L/Hr), 1000 (L/Hr), 0.13 (mL/min), and 7 (Bar), correspondingly. […]

EeAChE = EeAChE (Electrophorus electricus, UniProt O42275); experiment: Acetylcholine esterase inhibition (preliminary data); type: biochemical, electric eel
Sequence of EeAChE (O42275 24-633): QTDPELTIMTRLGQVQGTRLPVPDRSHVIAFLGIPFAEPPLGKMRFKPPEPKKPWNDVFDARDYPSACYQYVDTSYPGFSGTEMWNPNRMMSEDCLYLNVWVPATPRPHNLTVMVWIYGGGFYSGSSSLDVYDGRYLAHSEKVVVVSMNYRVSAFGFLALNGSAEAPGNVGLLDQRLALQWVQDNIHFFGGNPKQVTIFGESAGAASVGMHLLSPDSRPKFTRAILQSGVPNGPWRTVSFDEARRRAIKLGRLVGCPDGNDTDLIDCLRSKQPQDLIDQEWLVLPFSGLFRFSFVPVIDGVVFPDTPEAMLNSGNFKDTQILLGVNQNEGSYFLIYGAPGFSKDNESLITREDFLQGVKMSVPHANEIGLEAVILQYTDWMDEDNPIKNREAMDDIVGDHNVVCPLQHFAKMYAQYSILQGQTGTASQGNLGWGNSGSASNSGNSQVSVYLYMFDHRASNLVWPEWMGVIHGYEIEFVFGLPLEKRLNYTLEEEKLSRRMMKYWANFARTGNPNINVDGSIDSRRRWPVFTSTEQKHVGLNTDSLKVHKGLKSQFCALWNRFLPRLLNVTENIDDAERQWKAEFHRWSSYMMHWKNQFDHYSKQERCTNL

[2] = ST-2223 5 mg/kg i.p. chronic, p < 0.05
[3] = ST-2223 10 mg/kg i.p. chronic, p < 0.05

COc1ccccc1N1CCN(CCCCNC(=O)c2ccc3cc(OCCCN4CCCCC4)ccc3c2)CC1 [ST-2223, N-(4-(4-(2-methoxyphenyl)piperazin-1-yl)butyl)-6-(3-(piperidin-1-yl)propoxy)-2-naphthamide]
time spent in the periphery (BTBR mice; ST-2223 2.5 mg/kg i.p. chronic): no group differences | time spent in the center of the open field (BTBR mice; ST-2223 2.5 mg/kg i.p. chronic, p = 0.84): failed to decrease the time spent in the center of the arena to a significant level | time spent in the center of the open field (BTBR mice; [2]): significantly less time in the central compartment | time spent in the periphery (BTBR mice; [2]): significantly corrected the decreased time | total distance travelled vs VEH-treated BTBR mice (BTBR mice; [2]): significantly decreased the total distance travelled | time spent in the periphery (BTBR mice; ST-2223 10 mg/kg i.p. chronic): no group differences | time spent in the center of the open field (BTBR mice; [3]): significantly less time in the central compartment | total distance travelled vs VEH-treated BTBR mice (BTBR mice; [3]): significantly decreased the total distance travelled | Acetylcholine level ([1]; Hippocampus): ↑ ^b | Acetylcholine level ([1]; Prefrontal cortex): ↑ ^b | Acetylcholine level ([1]; Striatum): ↑ ^b | acetylcholine levels ([1]; prefrontal cortex, striatum and hippocampus, ST-2223 5 mg/kg chronic, p < 0.05): significant increase of acetylcholine levels | inhibition of acetylcholine esterase enzyme (eeAChE), in words (EeAChE): neglectful inhibition
